# Entries after “also recorded” stand apart in the source; their conditions may differ.
# Columns and labels:
# male patients with ED = assay: Phase II single oral dose safety in male patients with ED; assay type: in vivo, human
# Method: The study was an exploratory Phase II, randomised, placebo-controlled, double-blind, crossover study, investigating the effects of a single oral dose of IP2015 on erectile function in males with ED. A dose level of 10 mg was selected. Patients were enrolled into two cohorts. Both cohorts participated in two periods (Period 1 and Period 2) and received a single dose of IP2015 and a single dose of placebo.
# The study evaluated the efficacy data from RigiScan assessments in male patients with ED and the clinical safety data from AE reporting, 12-lead ECGs, vital signs, physical examinations and clinical laboratory evaluations in male patients with ED.
# Safety parameters were listed and summarised using descriptive statistics. Pharmacokinetic parameter estimates were calculated using noncompartmental methods. Pharmacokinetic data were listed for each subject/patient and summarised by descriptive statistics.
# [1] = system: male subjects with erectile dysfunction (ED); assay: Treatment-emergent adverse events after repeat single oral doses in male subjects with ED; assay type: in vivo, human
# Method: Treatment-related adverse events are adverse events which could either be possibly or probably related to the treatment.
# 130 subjects were divided into 3 groups upon which the study was conducted in parallel. Each subject was dosed on four occasions with either 5 mg IP2015, 10 mg IP2015 or matched placebo. In each group, subjects were randomised evenly to each of the three study treatments and received the same treatment at each visit.
# There were three potential study treatments of 5 mg IP2015, 10 mg IP2015 or matched placebo. In each group, subjects were randomised evenly to each of the three study treatments and received the same treatment on each visit. IP2015 or matched placebo was administered once in the morning of Week 1 (Day 1), Week 2, Week 3, and Week 4 as an oral solution in the fasted state. The dose was taken with 240 ml of water at room temperature. Subjects had fasted 2 hours prior to dosing until 4 hours postdose. Water was allowed ad libitum except for 1 hour before and 1 hour after dosing.
# Efficacy was assessed through the International Index of Erectile Function (IIEF)-15 questionnaire. The change from baseline in responses to questions of the IIEF-15 questionnaire, including questions regarding erectile function, orgasmic function, sexual desire, intercourse satisfaction and overall satisfaction domain scores, was determined at different time points of the study. RigiScan assessments during the stimulus assessment, and sperm count and motility by semen sample collection was used for efficacy evaluation. Safety was assessed through AE reporting, 12-lead ECG, vital signs, physical examinations and clinical laboratory evaluations. Pharmacokinetics was assessed by blood sampling.
# [2] = overall, crossover 10 mg IP2015 and placebo
# [3] = overall, crossover 10 mg IP2015 and placebo, 12 patients
smiles,measurement,setting,value
"COc1cc2ccc(OC3CC4CCC(C3)N4)cc2oc1=O (stereo not drawn) [IP2015, 7-[(8-azabicyclo[3.2.1]octan-3-yl)oxy]-3-methoxy-chromen-2-one]","heart rate, increase from baseline","male patients with ED; 10 mg, 8 hours postdose",14.56 bpm
same,"RR, PR, QRS, QT and QTcF intervals, IP2015 versus placebo","male patients with ED; male patients with ED, 10 mg",no significant treatment-related differences
same,"haematology, serum biochemistry or urinalysis data","male patients with ED; male patients with ED, 10 mg",no significant treatment- or dose-related trends
same,standing and supine pulse rate,"male patients with ED; male patients with ED, 10 mg",apparent treatment-related increase
same,"systolic blood pressure, diastolic blood pressure and oral temperature, IP2015 versus placebo","male patients with ED; male patients with ED, 10 mg",no significant treatment-related differences
same,deaths or SAEs,male patients with ED; [2],No deaths or SAEs were reported
same,severity of TEAEs,male patients with ED; [2],All events were mild in severity
same,number of TEAEs,male patients with ED; [3],19
same,patients experiencing TEAEs,male patients with ED; [3],9 (75.0%)
same,"Any TEAE, number of events","[1]; 5 mg, N = 42",61
same,"Any TEAE, subjects (%)","[1]; 5 mg, N = 42",32 (76.2%)
same,"Dizziness, number of events","[1]; 5 mg, N = 42",3
same,"Dizziness, subjects (%)","[1]; 5 mg, N = 42",3 (7.1%)
same,"Headache, number of events","[1]; 5 mg, N = 42",15
same,"Headache, subjects (%)","[1]; 5 mg, N = 42",11 (26.2%)
same,"Mild TEAE, number of events","[1]; 5 mg, N = 42",56
same,"Mild TEAE, subjects (%)","[1]; 5 mg, N = 42",29 (69.0%)
same,"Moderate TEAE, number of events","[1]; 5 mg, N = 42",5
same,"Moderate TEAE, subjects (%)","[1]; 5 mg, N = 42",3 (7.1%)
same,"Nausea, number of events","[1]; 5 mg, N = 42",1
same,"Nausea, subjects (%)","[1]; 5 mg, N = 42",1 (2.4%)
same,"Related TEAE, number of events","[1]; 5 mg, N = 42",19
same,"Related TEAE, subjects (%)","[1]; 5 mg, N = 42",10 (23.8%)
same,Severe TEAE,"[1]; 5 mg, N = 42",0
same,"TEAEs, high dose compared to low dose",[1]; 10 mg versus 5 mg,slightly increased in the high dose compared to the low dose
same,"Any TEAE, number of events","[1]; 10 mg, N = 43",141
same,"Any TEAE, subjects (%)","[1]; 10 mg, N = 43",34 (79.1%)
same,"Dizziness, number of events","[1]; 10 mg, N = 43",15
same,"Dizziness, subjects (%)","[1]; 10 mg, N = 43",12 (27.9%)
same,"Headache, number of events","[1]; 10 mg, N = 43",27
same,"Headache, subjects (%)","[1]; 10 mg, N = 43",16 (37.2%)
same,"Mild TEAE, number of events","[1]; 10 mg, N = 43",132
same,"Mild TEAE, subjects (%)","[1]; 10 mg, N = 43",33 (76.7%)
same,"Moderate TEAE, number of events","[1]; 10 mg, N = 43",9
same,"Moderate TEAE, subjects (%)","[1]; 10 mg, N = 43",7 (16.3%)
same,"Nausea, number of events","[1]; 10 mg, N = 43",15
same,"Nausea, subjects (%)","[1]; 10 mg, N = 43",8 (18.6%)
same,"Related TEAE, number of events","[1]; 10 mg, N = 43",84
same,"Related TEAE, subjects (%)","[1]; 10 mg, N = 43",23 (53.5%)
same,Severe TEAE,"[1]; 10 mg, N = 43",0
same,severe side effects,"[1]; any of the doses (5 mg, 10 mg)",No severe side effects were observed; also recorded: No severe TEAEs were present
same,treatment-emergent adverse effects versus placebo group,[1]; low-dose (5 mg),comparable to the placebo group

# Reference: patent publication US20260216166A1, “COMPOUND FOR TREATMENT OF ERECTILE DYSFUNCTION” (Initiator Pharma A/S, priority 2023, published 2026)
